{"source": "paper PMC5390258", "about": "“CMD-05, a novel promising clinical anti-diabetic drug candidate, in vivo and vitro studies” (Scientific Reports, 2017)", "key": {"[1]": {"test_system": "293 cells", "experiment": "Cytotoxicity in 293 cells (CCK-8)", "format": "cell-based", "details": "12 h", "method": "(§1) The toxicities of CMD-05 on HT22, 293 and […] cell lines was assessed using Cell Counting Kit-8 (CCK-8) (Biosharp, China). Briefly, the cells were plated on 96-well plates. […] The absorbance at 450 nm was measured using a microplate spectrophotometer."}, "[2]": {"test_system": "model rats (HFD/low-dose STZ, T2DM)", "experiment": "Oral glucose tolerance test (OGTT) in HFD/STZ T2DM model rats", "format": "in vivo, rat", "details": "for percentage reduction of blood glucose levels in OGTT: model rats", "method": "(§2) To establish model of T2DM, male rats (80–100 g, 9-week-old)[49] were fed high fat diet (HFD) (20% sugar, 10% lard, 10% egg yolk and 60% basal feed) after a week of normal diet. After 4 weeks, rats were injected once with low-dose streptozotocin (Solarbio, China) (STZ, 30 mg/kg i.p) to induce partial insulin deficiency, and then continuously fed HFD for 4 weeks after injection of STZ. Then the model rats were oral administrated drugs for 30 days. The body weights were recorded once a week.\nOn the 1st day, 19th days and 29th days of treatment, oral glucose tolerance tests for model rats were carried out. […] The blood glucose levels were tested using Johnson one touch Ultra Test Strips on Johnson Performa blood glucose meter."}, "[3]": {"test_system": "LO-2 cells", "experiment": "Cytotoxicity in LO-2 cells (CCK-8)", "format": "cell-based", "details": "1 × 10^−4 M, 12 h", "method": "as §1"}, "[4]": {"test_system": "Kunming mice", "experiment": "Acute toxicity in mice", "format": "in vivo", "method": "For acute hypoglycemia test, male rats (150–250 g) were used. […].\nAcute toxicological signs of included activities, nervous system response, autonomic nervous system response and death of mice were observed after a single oral dose of 2000 mg/kg."}, "[5]": {"test_system": "HT22 cells", "experiment": "Cytotoxicity in HT22 cells (CCK-8)", "format": "cell-based", "details": "3 × 10^−6 to 3 × 10^−5 M, 12 h", "method": "as §1"}, "[6]": {"test_system": "TG, LDL-C", "experiment": "TG and LDL-C plasma levels in model rats", "format": "in vivo, rat", "method": "as §2\n(§3) Oral glucose load, fasted and random blood samples were collected from rats on the 28th days, the 29th days and the last of the treatment of drugs, respectively. Plasma levels of insulin and GLP-1 were measured by ELISA kits (YuanYe, China) according to the manufacturer’s recommendation. The levels of HbA1c, Triglycerides (TG), total cholesterol (TC) and low density lipoprotein cholesterol (LDL-C) in blood samples were measured by commercial assay kits (JianCheng, Nanjing, China) according to the manufacturer’s directions."}, "[7]": {"test_system": "insulin", "experiment": "Plasma insulin levels in model rats (ELISA)", "format": "in vivo, rat", "details": "1.5 and 4.5 mg/kg, fasted, glucose load and random plasma", "method": "as §2, §3"}, "[8]": {"molecular_target": "T1, plasma DPP-IV (Rattus norvegicus, UniProt P14740)", "T1 construct": "from tissue; host or cells: plasma of Sprague-Dawley rats", "T1 sequence (P14740 whole entry)": "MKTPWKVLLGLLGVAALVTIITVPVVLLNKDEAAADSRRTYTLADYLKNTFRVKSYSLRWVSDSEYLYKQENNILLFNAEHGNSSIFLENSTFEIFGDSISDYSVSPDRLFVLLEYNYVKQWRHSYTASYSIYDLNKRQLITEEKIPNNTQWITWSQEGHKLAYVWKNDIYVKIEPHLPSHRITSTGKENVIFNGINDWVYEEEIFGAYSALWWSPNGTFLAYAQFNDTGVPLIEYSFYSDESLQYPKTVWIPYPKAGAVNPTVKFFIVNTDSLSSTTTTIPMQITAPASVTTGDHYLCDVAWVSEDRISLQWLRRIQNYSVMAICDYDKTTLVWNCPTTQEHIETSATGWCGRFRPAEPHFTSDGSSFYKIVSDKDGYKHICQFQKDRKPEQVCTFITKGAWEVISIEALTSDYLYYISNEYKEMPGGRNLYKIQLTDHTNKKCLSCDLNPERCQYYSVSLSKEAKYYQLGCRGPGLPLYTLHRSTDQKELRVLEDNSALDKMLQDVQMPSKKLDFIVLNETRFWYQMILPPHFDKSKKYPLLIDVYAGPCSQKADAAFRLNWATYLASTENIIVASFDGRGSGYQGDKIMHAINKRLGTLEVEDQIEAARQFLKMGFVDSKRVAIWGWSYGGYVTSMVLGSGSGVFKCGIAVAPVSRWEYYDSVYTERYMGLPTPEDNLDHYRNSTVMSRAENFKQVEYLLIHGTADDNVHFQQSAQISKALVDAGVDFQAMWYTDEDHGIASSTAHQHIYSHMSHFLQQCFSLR", "experiment": "Plasma DPP-IV activity determination in model rats", "format": "in vivo"}, "[9]": {"molecular_target": "T2, recombinant human DPP-IV (Homo sapiens, UniProt P27487)", "T2 construct": "purchased R&D systems, USA", "T2 sequence (P27487 whole entry)": "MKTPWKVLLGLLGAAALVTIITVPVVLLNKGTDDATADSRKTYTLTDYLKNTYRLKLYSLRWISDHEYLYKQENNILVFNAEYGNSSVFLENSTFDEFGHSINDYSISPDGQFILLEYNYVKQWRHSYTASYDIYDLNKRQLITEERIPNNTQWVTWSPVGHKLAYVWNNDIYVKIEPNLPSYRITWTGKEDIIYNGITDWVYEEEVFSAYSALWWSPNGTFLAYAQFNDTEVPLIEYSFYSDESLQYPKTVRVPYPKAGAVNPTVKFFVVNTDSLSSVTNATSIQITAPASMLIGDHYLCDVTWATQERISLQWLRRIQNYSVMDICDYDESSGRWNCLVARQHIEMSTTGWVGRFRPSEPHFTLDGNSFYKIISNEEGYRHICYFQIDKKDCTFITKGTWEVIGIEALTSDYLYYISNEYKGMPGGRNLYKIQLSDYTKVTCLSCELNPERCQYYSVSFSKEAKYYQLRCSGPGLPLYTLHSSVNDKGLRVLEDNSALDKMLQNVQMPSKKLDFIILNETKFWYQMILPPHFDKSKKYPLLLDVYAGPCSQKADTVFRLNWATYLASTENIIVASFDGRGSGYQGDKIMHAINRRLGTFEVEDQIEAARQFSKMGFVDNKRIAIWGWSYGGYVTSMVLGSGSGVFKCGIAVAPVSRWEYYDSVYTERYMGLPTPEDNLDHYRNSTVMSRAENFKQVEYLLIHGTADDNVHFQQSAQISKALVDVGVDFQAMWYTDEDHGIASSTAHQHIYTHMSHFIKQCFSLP", "experiment": "Recombinant human DPP-IV activity assay", "format": "biochemical", "details": "Gly-Pro-MCA substrate, read-out: IC50 of DPP-IV inhibition", "method": "DPP-IV inhibition assay was carried out using either 5 ng purified recombinant human DPP-IV (rhDPP-IV) (R&D systems, USA). Recombinant DPP-IV was mixed with ddH2O in an assay buffer (25 mM Tris-HCl, 0.2 M NaCl, 0.1% BSA, pH 7.3). […] The vehicle comprised 1% DMSO in place of test compounds. […] The fluorescence intensity of AMC corresponded to DPP-IV activity."}, "[10]": {"test_system": "HbA1c", "experiment": "HbA1c level in blood of model rats", "format": "in vivo, rat", "details": "30 days", "method": "as §2, §3"}, "[11]": {"experiment": "Body weight of model rats", "format": "in vivo, rat", "details": "30 days treatment", "method": "as §2"}, "[12]": {"details": "fasted plasma, read-out: plasma DPP-IV inhibition rate"}, "[13]": {"details": "glucose load plasma, read-out: plasma DPP-IV inhibition"}, "[14]": {"details": "random plasma, read-out: plasma DPP-IV inhibition"}}, "note": "Where two headings read alike, the source gives them in different places."}
{"smiles": "N#C[C@@H]1CCCN1C(=O)CN(C(=O)CCCCCl)C12CC3CC(CC(O)(C3)C1)C2", "note": "[CMD-05]", "values": [{"measurement": "cytotoxicity (cell viability)", "setting": "[1]; 1 × 10^−4 M", "result": "slightly reduced cell viability"}, {"measurement": "cytotoxicity (cell viability)", "setting": "[1]; 3 × 10^−6 to 1 × 10^−5 M", "result": "did not induce significant cytotoxicity"}, {"measurement": "percentage reduction of blood glucose levels in OGTT", "setting": "[2]; 1.5 mg/kg oral, 1st day", "result": 8.0, "unit": "%"}, {"measurement": "percentage reduction of blood glucose levels in OGTT", "setting": "[2]; 1.5 mg/kg oral, 19th day", "result": 9.22, "unit": "%"}, {"measurement": "percentage reduction of blood glucose levels in OGTT", "setting": "[2]; 1.5 mg/kg oral, 29th day", "result": 17.8, "unit": "%"}, {"measurement": "percentage reduction of blood glucose levels in OGTT", "setting": "[2]; 4.5 mg/kg oral, 1st day", "result": 9.7, "unit": "%"}, {"measurement": "percentage reduction of blood glucose levels in OGTT", "setting": "[2]; 4.5 mg/kg oral, 19th day", "result": 12.2, "unit": "%"}, {"measurement": "percentage reduction of blood glucose levels in OGTT", "setting": "[2]; 4.5 mg/kg oral, 29th day", "result": 21.9, "unit": "%"}, {"measurement": "AUC (area under the blood glucose curve) in OGTT", "setting": "[2]; 1st, 19th and 29th day, vs model group", "result": "significant decrease"}, {"measurement": "cytotoxicity (cell viability)", "setting": "[3]", "result": "no detectable toxic effect"}, {"measurement": "maximum tolerance dose", "setting": "[4]; oral", "result": "> 2000", "unit": "mg/kg"}, {"measurement": "acute toxicity signs", "setting": "[4]; single oral dose of 2000 mg/kg", "result": "no toxicological signs"}, {"measurement": "cytotoxicity (cell viability)", "setting": "[5]", "result": "did not induce significant cytotoxicity"}, {"measurement": "reduction of LDL-C level", "setting": "[6]; 0.5 mg/kg", "result": 9, "unit": "%"}, {"measurement": "reduction of TG level", "setting": "[6]; 0.5 mg/kg", "result": 22.41, "unit": "%"}, {"measurement": "reduction of LDL-C level", "setting": "[6]; 1.5 mg/kg", "result": 12.60, "unit": "%"}, {"measurement": "reduction of TG level", "setting": "[6]; 1.5 mg/kg", "result": 37.07, "unit": "%"}, {"measurement": "reduction of LDL-C level", "setting": "[6]; 4.5 mg/kg", "result": 17.91, "unit": "%"}, {"measurement": "reduction of TG level", "setting": "[6]; 4.5 mg/kg", "result": 42.67, "unit": "%"}, {"measurement": "plasma lipids levels", "setting": "[6]; 4.5 mg/kg continuously for 30 days", "result": "decreased to normal level"}, {"measurement": "insulin levels in plasma", "setting": "[7]", "result": "significantly increased"}, {"measurement": "inhibition at 0.5 mg/kg", "setting": "[8]; [12]", "result": "~20", "unit": "%"}, {"measurement": "inhibition at 1.5 mg/kg", "setting": "[8]; [12]", "result": "~30", "unit": "%"}, {"measurement": "inhibition at 4.5 mg/kg", "setting": "[8]; [12]", "result": "~50", "unit": "%"}, {"measurement": "inhibition at 0.5 mg/kg", "setting": "[8]; [13]", "result": "~10", "unit": "%"}, {"measurement": "inhibition at 1.5 mg/kg", "setting": "[8]; [13]", "result": "~20", "unit": "%"}, {"measurement": "inhibition at 4.5 mg/kg", "setting": "[8]; [13]", "result": "~70", "unit": "%"}, {"measurement": "inhibition at 0.5 mg/kg", "setting": "[8]; [14]", "result": "~20", "unit": "%"}, {"measurement": "inhibition at 1.5 mg/kg", "setting": "[8]; [14]", "result": "~30", "unit": "%"}, {"measurement": "inhibition at 4.5 mg/kg", "setting": "[8]; [14]", "result": "~55", "unit": "%"}, {"measurement": "IC50", "setting": "[9]", "result": 12, "unit": "nM"}, {"measurement": "reduction of the level of HbA1c", "setting": "[10]; 1.5 mg/kg", "result": 1.0, "unit": "%"}, {"measurement": "reduction of the level of HbA1c", "setting": "[10]; 4.5 mg/kg", "result": 2.2, "unit": "%"}, {"measurement": "body weights vs model group", "setting": "[11]", "result": "no significant difference"}]}
